The target of test [1] is Cyclin-dependent kinase 5/CDK5 activator 1 (Homo sapiens) (UniProt Q00535+Q15078). In words: Inhibition of human recombinant CDK5/p25 using histone1 as substrate at 10 uM after 30 mins in presence of [gamma33P] ATP by scintillation counting. The class given is protein-complex assay.
The target in test [2] is Dual specificity protein kinase CLK1 (Homo sapiens) (UniProt P49759). The test is described as follows: Inhibition of GST-fused human recombinant CLK1 expressed in Escherichia coli using GRSRSRSRSRSR peptide as substrate at 10 uM.
Sequence of Dual specificity protein kinase CLK1 (Homo sapiens) (P49759 whole entry, looked up, the tested form may be a part): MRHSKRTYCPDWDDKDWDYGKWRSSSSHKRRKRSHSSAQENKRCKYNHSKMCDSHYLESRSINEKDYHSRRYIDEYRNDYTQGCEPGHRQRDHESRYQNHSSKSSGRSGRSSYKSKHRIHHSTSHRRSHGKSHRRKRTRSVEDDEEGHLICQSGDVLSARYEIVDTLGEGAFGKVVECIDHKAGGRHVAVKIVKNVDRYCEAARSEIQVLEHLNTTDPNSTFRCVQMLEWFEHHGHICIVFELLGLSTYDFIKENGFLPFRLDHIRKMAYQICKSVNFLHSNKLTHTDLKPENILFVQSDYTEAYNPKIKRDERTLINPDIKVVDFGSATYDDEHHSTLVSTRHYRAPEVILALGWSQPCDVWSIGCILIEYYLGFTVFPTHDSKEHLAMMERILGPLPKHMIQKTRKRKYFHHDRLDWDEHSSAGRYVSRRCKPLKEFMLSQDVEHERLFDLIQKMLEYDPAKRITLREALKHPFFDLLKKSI
Test [3] deals with Dual specificity tyrosine-phosphorylation-regulated kinase 1A (Rattus norvegicus) (UniProt Q63470). The test is described as follows: Inhibition of GST-fused rat recombinant DYRK1A expressed in Escherichia coli using myelin basic protein as substrate at 10 uM after 30 mins in presence of [gamma33P] ATP by scintillation counting.
A further test is filed under the species Sus scrofa. The test is described as follows: Inhibition of porcine brain CK1delta/epsilon using RRKHAAIGpSAYSITA as substrate at 10 uM after 30 mins in presence of [gamma33P] ATP by scintillation counting.
The target in test [4] is Glycogen synthase kinase-3 (Sus scrofa) (UniProt B2LUN4+I6LNT8). The test is described as follows: Inhibition of porcine brain GSKalpha/beta using GS-1 as substrate at 10 uM after 30 mins in presence of [gamma33P] ATP by scintillation counting.

Sequence of Cyclin-dependent kinase 5/CDK5 activator 1 (Homo sapiens) (Q00535 whole entry, the tested form may be a part): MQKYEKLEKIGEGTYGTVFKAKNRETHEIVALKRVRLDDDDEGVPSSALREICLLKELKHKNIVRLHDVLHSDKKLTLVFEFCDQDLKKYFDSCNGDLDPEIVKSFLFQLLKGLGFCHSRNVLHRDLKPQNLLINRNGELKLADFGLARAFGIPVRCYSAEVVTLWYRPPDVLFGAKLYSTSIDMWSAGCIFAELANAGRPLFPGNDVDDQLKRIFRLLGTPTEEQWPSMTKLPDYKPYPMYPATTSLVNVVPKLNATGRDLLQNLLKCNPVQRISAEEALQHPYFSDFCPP
Sequence of Cyclin-dependent kinase 5/CDK5 activator 1 (Homo sapiens) (Q15078 99-307 partner limits assumed): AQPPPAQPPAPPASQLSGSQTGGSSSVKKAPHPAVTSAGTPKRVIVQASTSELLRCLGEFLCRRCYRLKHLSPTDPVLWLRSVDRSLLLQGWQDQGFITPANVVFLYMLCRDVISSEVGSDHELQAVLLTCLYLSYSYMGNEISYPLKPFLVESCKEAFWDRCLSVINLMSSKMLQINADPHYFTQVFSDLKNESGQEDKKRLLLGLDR

On to `Cc1c2cnccc2c([N+](=O)[O-])c2nc(N)ncc12`, for which the inhibition (commonly how much of the control response was suppressed) in test [1] stood at 88%; in test [2] it was 30%; in test [3], 82%; in the test listed under Sus scrofa it was 83%; in test [4] it was 78%.

Consider `Nc1ncc2cc3cnccc3c(N)c2n1`, for which the inhibition came out at 70% in test [1]; 100% in test [2]; 99% in test [3]; 76% in the test filed under Sus scrofa; 54% in test [4].

As to `CCc1c2cnccc2c(N)c2nc(N)ncc12`, the inhibition in test [1] amounted to 61%; in test [2] it was 31%; in test [3] it was 65%; in the test filed under Sus scrofa, 84%; in test [4], 79%.

On to `CCCCc1c2cnccc2c(N)c2nc(N)ncc12`, for which the inhibition in test [1] worked out at 0%; in test [2], 31%; in test [3], 52%; in the test listed under Sus scrofa it was 42%; in test [4], 34%.

For `Nc1ncc2c(Cc3ccccc3)c3cnccc3c([N+](=O)[O-])c2n1`, the inhibition in test [1] was found to be 2%; in test [2], 37%; in test [3], 40%; in the test listed under Sus scrofa, 64%; in test [4] it was 14%.

`CCCCc1c2cnccc2c([N+](=O)[O-])c2nc(N)ncc12`: the inhibition in test [1] is 91%; in test [2], 31%; in test [3] it was 86%; in the test listed under Sus scrofa, 57%; in test [4] it was 100%.

With `Nc1ncc2c(-c3ccccc3)c3cnccc3c(N)c2n1`, the inhibition amounted to 33% in test [1]; 32% in test [2]; 49% in test [3]; 55% in the test listed under Sus scrofa; 25% in test [4].

As for `CCc1c2cnccc2c([N+](=O)[O-])c2nc(N)ncc12`, the inhibition in test [1] turned out to be 96%; in test [2] it was 31%; in test [3], 80%; in the test filed under Sus scrofa, 87%; in test [4] it was 98%.

On to `Cc1c2cnccc2c(N)c2nc(N)ncc12`, for which the inhibition in test [1] is 54%; in test [2], 30%; in test [3] it was 90%; in the test listed under Sus scrofa, 70%; in test [4] it was 43%.

As to `Nc1ncc2c(Br)c3cnccc3c([N+](=O)[O-])c2n1`, the inhibition in test [1] came to 0%; in test [2] it was 28%; in test [3] it was 76%; in the test filed under Sus scrofa, 34%; in test [4], 41%.

For `Nc1ncc2cc3cnccc3c([N+](=O)[O-])c2n1`, the inhibition in test [1] turned out to be 44%; in test [2], 98%; in test [3], 95%; in the test filed under Sus scrofa, 91%; in test [4], 75%.

For `Nc1ncc2c(Cc3ccccc3)c3cnccc3c(N)c2n1`, the inhibition in test [1] was determined as 4%; in test [2], 29%; in test [3], 49%; in the test filed under Sus scrofa, 76%; in test [4] it was 12%.

For the compound `Nc1ncc2c(-c3ccccc3)c3cnccc3c([N+](=O)[O-])c2n1`, the inhibition in test [1] was 25%; in test [2] it was 30%; in test [3], 53%; in the test listed under Sus scrofa, 49%; in test [4] it was 74%.

The record behind these values is ChEMBL document CHEMBL4425175, “Synthesis and preliminary in vitro kinase inhibition evaluation of new diversely substituted pyrido[3,4-g]quinazoline derivatives” (Bioorg Med Chem Lett, 2016).
